Test results from ChEMBL document CHEMBL3872279, “Design, synthesis and biological evaluation of novel 4-(2-fluorophenoxy)quinoline derivatives as selective c-Met inhibitors” (Bioorg Med Chem, 2017).
One block for each molecule: values may come before it.

What was measured:
[1] = Cytotoxicity against human HT-29 cells after 72 hrs by MTT assay; settings: HT-29, 72 h
[2] = Cytotoxicity against human A549 cells after 72 hrs by MTT assay; settings: A549, 72 h
[3] = Cytotoxicity against human MKN45 cells after 72 hrs by MTT assay; settings: MKN-45, 72 h
[4] = target: Epidermal growth factor receptor (Homo sapiens, UniProt P00533); assay: Inhibition of EGFR (unknown origin)
[5] = target: ALK tyrosine kinase receptor (Homo sapiens, UniProt Q9UM73); assay: Inhibition of ALK (unknown origin)
Sequence of ALK tyrosine kinase receptor (Q9UM73 whole entry): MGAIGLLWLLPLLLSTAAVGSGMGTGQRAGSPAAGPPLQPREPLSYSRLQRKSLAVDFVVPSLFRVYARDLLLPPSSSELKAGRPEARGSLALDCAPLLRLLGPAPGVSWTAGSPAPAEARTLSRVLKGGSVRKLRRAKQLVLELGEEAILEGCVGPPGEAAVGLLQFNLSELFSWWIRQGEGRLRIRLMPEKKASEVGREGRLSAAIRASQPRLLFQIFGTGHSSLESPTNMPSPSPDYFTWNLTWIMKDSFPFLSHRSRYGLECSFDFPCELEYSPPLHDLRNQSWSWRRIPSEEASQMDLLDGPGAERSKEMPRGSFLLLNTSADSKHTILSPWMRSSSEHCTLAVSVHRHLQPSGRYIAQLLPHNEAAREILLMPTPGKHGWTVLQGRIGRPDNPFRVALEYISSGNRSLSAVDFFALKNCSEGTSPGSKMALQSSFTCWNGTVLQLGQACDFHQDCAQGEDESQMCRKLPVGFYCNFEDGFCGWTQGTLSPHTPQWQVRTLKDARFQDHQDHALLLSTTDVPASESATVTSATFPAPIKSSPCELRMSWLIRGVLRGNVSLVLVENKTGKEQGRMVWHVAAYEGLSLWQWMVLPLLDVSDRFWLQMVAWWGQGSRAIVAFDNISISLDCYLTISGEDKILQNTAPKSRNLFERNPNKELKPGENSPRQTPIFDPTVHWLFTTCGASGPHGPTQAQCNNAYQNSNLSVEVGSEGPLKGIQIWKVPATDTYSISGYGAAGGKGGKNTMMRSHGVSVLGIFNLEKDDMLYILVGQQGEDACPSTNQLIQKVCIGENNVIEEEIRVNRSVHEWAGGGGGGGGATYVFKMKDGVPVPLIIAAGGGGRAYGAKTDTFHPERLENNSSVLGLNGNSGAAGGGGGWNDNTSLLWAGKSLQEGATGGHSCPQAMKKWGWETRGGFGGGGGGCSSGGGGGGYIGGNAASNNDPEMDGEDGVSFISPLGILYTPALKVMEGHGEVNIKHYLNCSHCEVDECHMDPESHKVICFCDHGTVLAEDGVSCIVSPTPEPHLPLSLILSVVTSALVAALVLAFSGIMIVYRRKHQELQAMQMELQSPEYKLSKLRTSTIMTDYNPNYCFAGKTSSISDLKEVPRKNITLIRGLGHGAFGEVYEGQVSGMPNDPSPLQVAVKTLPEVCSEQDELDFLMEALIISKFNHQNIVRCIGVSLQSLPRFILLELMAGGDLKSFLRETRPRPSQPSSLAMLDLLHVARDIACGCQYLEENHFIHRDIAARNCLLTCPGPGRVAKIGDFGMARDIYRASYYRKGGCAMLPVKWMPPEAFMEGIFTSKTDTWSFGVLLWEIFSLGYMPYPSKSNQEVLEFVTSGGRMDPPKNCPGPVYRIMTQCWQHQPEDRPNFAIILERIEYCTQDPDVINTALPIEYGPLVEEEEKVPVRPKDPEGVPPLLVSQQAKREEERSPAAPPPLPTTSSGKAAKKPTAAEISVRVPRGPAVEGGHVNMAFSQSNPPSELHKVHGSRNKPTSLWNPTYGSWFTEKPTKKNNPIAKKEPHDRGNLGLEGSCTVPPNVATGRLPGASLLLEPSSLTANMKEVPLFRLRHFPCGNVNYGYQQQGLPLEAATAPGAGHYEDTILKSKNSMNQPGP

A549 = assay: Potency index, ratio of foretinib IC50 to compound IC50 for human A549 cells; type: functional
[6] = target: Vascular endothelial growth factor receptor 2 (Homo sapiens, UniProt P35968); assay: Inhibition of VEGFR-2 (unknown origin)
Sequence of Vascular endothelial growth factor receptor 2 (P35968 whole entry): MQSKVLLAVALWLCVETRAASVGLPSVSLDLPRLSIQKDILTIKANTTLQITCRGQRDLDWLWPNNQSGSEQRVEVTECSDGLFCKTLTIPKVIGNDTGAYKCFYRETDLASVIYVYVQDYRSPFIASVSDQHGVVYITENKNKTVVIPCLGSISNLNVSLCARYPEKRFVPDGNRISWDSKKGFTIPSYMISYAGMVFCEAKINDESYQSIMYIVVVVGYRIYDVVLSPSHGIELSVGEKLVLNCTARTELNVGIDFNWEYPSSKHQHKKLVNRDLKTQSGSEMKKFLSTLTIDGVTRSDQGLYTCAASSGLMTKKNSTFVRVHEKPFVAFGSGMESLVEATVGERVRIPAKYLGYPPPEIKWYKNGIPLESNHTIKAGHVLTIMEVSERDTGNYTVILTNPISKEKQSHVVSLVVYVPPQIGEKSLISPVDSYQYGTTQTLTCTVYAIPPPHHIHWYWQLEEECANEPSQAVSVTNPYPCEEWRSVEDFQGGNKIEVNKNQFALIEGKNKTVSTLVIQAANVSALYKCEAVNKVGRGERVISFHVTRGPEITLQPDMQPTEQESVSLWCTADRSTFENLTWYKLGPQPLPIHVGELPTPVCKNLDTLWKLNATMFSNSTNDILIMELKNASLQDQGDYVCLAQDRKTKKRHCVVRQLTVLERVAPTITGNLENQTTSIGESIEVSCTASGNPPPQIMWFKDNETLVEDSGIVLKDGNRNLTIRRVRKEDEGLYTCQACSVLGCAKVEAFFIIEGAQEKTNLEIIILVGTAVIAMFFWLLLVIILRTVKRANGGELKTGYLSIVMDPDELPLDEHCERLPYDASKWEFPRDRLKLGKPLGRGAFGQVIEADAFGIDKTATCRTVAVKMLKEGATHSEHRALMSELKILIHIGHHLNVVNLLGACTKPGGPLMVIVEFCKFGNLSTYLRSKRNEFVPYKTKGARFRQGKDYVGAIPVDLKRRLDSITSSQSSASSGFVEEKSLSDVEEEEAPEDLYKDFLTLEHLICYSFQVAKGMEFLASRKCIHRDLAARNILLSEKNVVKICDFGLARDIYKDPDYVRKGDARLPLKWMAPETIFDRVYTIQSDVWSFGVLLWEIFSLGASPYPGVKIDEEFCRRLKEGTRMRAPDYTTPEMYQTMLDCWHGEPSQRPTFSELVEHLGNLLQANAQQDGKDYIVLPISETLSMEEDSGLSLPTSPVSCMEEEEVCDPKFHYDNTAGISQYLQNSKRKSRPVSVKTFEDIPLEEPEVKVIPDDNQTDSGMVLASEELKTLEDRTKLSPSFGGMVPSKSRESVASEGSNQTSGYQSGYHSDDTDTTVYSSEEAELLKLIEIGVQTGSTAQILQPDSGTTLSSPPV

[7] = target: T1, Receptor-type tyrosine-protein kinase FLT3 (Homo sapiens, UniProt P36888); assay: Inhibition of FLT3 (unknown origin)
T1 sequence (P36888 whole entry): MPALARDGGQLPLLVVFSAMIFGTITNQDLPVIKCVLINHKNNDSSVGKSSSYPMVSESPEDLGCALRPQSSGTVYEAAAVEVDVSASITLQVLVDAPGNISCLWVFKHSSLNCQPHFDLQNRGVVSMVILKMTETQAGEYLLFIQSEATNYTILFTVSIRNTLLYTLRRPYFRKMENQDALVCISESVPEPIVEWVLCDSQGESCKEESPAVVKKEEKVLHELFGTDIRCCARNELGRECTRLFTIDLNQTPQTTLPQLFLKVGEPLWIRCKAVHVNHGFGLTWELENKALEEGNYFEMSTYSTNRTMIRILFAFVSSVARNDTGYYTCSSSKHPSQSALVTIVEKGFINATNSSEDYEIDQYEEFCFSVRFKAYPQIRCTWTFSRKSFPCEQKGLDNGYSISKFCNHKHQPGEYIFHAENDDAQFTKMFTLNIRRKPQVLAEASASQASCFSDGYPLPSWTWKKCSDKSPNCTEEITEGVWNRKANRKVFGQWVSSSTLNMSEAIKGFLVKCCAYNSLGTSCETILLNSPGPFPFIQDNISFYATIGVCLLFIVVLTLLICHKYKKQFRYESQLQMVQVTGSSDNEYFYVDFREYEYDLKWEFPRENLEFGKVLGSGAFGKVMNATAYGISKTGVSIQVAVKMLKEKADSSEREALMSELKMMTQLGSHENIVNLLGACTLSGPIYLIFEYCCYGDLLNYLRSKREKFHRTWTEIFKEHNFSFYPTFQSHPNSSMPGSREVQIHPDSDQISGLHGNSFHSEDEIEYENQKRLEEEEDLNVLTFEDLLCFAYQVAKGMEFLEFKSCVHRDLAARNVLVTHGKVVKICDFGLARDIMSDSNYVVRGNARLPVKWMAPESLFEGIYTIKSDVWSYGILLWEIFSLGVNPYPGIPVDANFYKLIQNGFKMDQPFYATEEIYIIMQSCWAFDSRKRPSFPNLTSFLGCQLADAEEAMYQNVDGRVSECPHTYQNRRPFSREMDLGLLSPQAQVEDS

[8] = target: Hepatocyte growth factor receptor (Homo sapiens, UniProt P08581); assay: Inhibition of c-MET (unknown origin) using poly (Glu, Tyr) 4:1 as substrate after 30 mins by HTRF assay
Sequence of Hepatocyte growth factor receptor (P08581 whole entry): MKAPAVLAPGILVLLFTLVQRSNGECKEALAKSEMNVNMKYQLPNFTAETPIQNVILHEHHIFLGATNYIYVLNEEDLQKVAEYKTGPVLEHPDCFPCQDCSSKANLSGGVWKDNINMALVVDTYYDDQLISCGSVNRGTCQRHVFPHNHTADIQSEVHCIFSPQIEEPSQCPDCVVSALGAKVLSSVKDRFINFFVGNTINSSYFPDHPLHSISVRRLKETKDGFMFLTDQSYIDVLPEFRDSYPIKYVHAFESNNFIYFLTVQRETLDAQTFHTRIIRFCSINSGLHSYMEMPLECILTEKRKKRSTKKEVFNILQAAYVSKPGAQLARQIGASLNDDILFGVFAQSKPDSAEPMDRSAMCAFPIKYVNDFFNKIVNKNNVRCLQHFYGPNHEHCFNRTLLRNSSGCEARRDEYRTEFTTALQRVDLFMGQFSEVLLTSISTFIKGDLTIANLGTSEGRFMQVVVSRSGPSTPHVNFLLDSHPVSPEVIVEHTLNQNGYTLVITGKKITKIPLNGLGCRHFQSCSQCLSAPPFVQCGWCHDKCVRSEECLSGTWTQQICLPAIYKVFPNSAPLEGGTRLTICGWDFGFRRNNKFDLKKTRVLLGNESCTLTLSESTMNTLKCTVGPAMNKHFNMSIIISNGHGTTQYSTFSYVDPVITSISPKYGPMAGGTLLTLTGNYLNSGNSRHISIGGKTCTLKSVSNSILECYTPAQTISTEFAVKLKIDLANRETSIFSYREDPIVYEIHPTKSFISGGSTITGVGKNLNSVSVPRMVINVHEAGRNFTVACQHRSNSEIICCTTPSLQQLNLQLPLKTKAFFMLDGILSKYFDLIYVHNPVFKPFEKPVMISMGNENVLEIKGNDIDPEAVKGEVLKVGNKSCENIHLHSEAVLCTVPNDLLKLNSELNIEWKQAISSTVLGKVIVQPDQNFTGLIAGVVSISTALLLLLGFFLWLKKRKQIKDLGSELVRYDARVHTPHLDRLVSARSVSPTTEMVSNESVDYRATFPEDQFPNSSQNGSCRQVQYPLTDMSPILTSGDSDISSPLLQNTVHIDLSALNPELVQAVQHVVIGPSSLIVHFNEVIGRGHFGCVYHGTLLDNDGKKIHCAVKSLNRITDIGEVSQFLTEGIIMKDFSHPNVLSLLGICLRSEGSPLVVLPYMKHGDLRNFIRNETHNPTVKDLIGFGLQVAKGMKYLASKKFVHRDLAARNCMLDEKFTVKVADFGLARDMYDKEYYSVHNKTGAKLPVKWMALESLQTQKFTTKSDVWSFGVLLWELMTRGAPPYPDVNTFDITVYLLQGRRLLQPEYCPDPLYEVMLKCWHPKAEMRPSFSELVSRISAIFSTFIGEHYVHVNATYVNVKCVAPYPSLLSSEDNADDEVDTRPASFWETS

[9] = target: Mast/stem cell growth factor receptor Kit (Homo sapiens, UniProt P10721); assay: Inhibition of c-KIT (unknown origin)
MKN-45 = assay: Potency index, ratio of foretinib IC50 to compound IC50 for human MKN45 cells; type: functional
HT-29 = assay: Potency index, ratio of foretinib IC50 to compound IC50 for human HT-29 cells; type: functional

Structure (SMILES): COc1cc2c(Oc3ccc(NC(=O)/C=C/S(=O)(=O)c4ccccc4OC)cc3F)ccnc2cc1OCCCN1CCN(C)CC1
- IC50 [1]: 270 nM
- IC50 [2]: 320 nM
- IC50 [3]: 430 nM

Structure (SMILES): COc1cc2c(Oc3ccc(NC(=O)c4cn(-c5ccc(Cl)cc5)cn4)cc3F)ccnc2cc1OCCCN1CCN(C)CC1
- IC50 [1]: 1350 nM
- IC50 [2]: 5200 nM
- IC50 [3]: 4110 nM

Structure (SMILES): COc1cc2c(Oc3ccc(NC(=O)c4cn(-c5ccccc5OC)cn4)cc3F)ccnc2cc1OCCCN1CCOCC1
- IC50 [1]: 200 nM
- IC50 [2]: 150 nM
- IC50 [3]: 320 nM

Structure (SMILES): COc1cc2c(Oc3ccc(NC(=O)/C=C/S(=O)(=O)c4ccccc4OC)cc3F)ccnc2cc1OCCCN1CCCCC1
- IC50 [1]: 660 nM
- IC50 [2]: 470 nM
- IC50 [3]: 980 nM

Structure (SMILES): COc1cc2c(Oc3ccc(NC(=O)/C=C/S(=O)(=O)c4ccc(C)cc4)cc3F)ccnc2cc1OCCCN1CCN(C)CC1
- IC50 [1]: 2070 nM
- IC50 [2]: 1510 nM
- IC50 [3]: 2510 nM

Structure (SMILES): COc1cc2c(Oc3ccc(NC(=O)c4cn(-c5ccccc5OC)cn4)cc3F)ccnc2cc1OCCCN1CCCCC1
- IC50 [1]: 100 nM
- IC50 [2]: 120 nM
- IC50 [3]: 260 nM

Structure (SMILES): COc1cc2c(Oc3ccc(NC(=O)c4cn(-c5ccc(Cl)cc5)cn4)cc3F)ccnc2cc1OCCCN1CCCCC1
- IC50 [1]: 2780 nM
- IC50 [2]: 6560 nM
- IC50 [3]: 5910 nM

Structure (SMILES): COc1cc2c(Oc3ccc(NC(=O)c4cn(-c5cc(C)ccc5C)cn4)cc3F)ccnc2cc1OCCCN1CCN(C)CC1
- IC50 [1]: 470 nM
- IC50 [2]: 350 nM
- IC50 [3]: 650 nM

Structure (SMILES): COc1ccc(S(=O)(=O)/C=C/C(=O)Nc2ccc(Oc3ccnc4cc(OCCCN5CCCCC5)c(OC)cc34)c(F)c2)cc1
- IC50 [1]: 1650 nM
- IC50 [2]: 2220 nM
- IC50 [3]: 3580 nM

Structure (SMILES): COc1cc2c(Oc3ccc(NC(=O)c4cn(-c5ccccc5OC(F)(F)F)cn4)cc3F)ccnc2cc1OCCCN1CCCCC1
- IC50 [1]: 250 nM
- IC50 [2]: 270 nM
- IC50 [3]: 190 nM

Structure (SMILES): COc1cc2c(Oc3ccc(NC(=O)c4cn(-c5ccccc5OC(F)(F)F)cn4)cc3F)ccnc2cc1OCCCN1CCOCC1
- IC50 [1]: 430 nM
- IC50 [2]: 520 nM
- IC50 [3]: 180 nM

Structure (SMILES): COc1cc2c(Oc3ccc(NC(=O)/C=C/S(=O)(=O)c4ccccc4F)cc3F)ccnc2cc1OCCCN1CCN(C)CC1
- IC50 [1]: 150 nM
- IC50 [2]: 150 nM
- IC50 [3]: 280 nM

Structure (SMILES): COc1cc2c(Oc3ccc(NC(=O)/C=C/S(=O)(=O)c4ccccc4OC)cc3F)ccnc2cc1OCCCN1CCC(C)CC1
- IC50 [1]: 1960 nM
- IC50 [2]: 3000 nM
- IC50 [3]: 2030 nM

Structure (SMILES): COc1ccc(S(=O)(=O)/C=C/C(=O)Nc2ccc(Oc3ccnc4cc(OCCCN5CCN(C)CC5)c(OC)cc34)c(F)c2)cc1
- IC50 [1]: 1660 nM
- IC50 [2]: 1870 nM
- IC50 [3]: 2770 nM

Structure (SMILES): COc1cc2c(Oc3ccc(NC(=O)c4cn(-c5ccc(Cl)cc5Cl)cn4)cc3F)ccnc2cc1OCCCN1CCCCC1
- IC50 [1]: 4300 nM
- IC50 [2]: 7490 nM
- IC50 [3]: 6240 nM

Structure (SMILES): COc1cc2c(Oc3ccc(NC(=O)c4cn(-c5cc(C)ccc5C)cn4)cc3F)ccnc2cc1OCCCN1CCCCC1
- IC50 [1]: 580 nM
- IC50 [2]: 510 nM
- IC50 [3]: 830 nM

- IC50 [4]: 690 nM
- IC50 [5]: > 3330 nM
- IC50 [6]: 589 nM
- IC50 [7]: 400 nM
- IC50 [8]: 1.1 nM
- IC50 [9]: 270 nM
Structure (SMILES): COc1cc2c(Oc3ccc(NC(=O)c4cn(-c5ccccc5OC)cn4)cc3F)ccnc2cc1OCCCN1CCN(C)CC1
- IC50 [1]: 80 nM
- Ratio IC50 (A549): 2.1
- Ratio IC50 (MKN-45): 1.4
- Ratio IC50 (HT-29): 3.1
- IC50 [2]: 70 nM
- IC50 [3]: 220 nM

Structure (SMILES): COc1cc2c(Oc3ccc(NC(=O)c4cn(-c5ccc(Cl)cc5Cl)cn4)cc3F)ccnc2cc1OCCCN1CCN(C)CC1
- IC50 [1]: 3050 nM
- IC50 [2]: 3850 nM
- IC50 [3]: 4840 nM

Structure (SMILES): COc1cc2c(Oc3ccc(NC(=O)/C=C/S(=O)(=O)c4ccc(C)cc4)cc3F)ccnc2cc1OCCCN1CCCCC1
- IC50 [1]: 4230 nM
- IC50 [2]: 2310 nM
- IC50 [3]: 1690 nM

Structure (SMILES): COc1cc2c(Oc3ccc(NC(=O)/C=C/S(=O)(=O)c4ccccc4F)cc3F)ccnc2cc1OCCCN1CCC(C)CC1
- IC50 [1]: 760 nM
- IC50 [2]: 410 nM
- IC50 [3]: 840 nM

Structure (SMILES): COc1cc2c(Oc3ccc(NC(=O)/C=C/S(=O)(=O)c4ccccc4F)cc3F)ccnc2cc1OCCCN1CCOCC1
- IC50 [1]: 600 nM
- IC50 [2]: 210 nM
- IC50 [3]: 420 nM

Structure (SMILES): COc1cc2c(Oc3ccc(NC(=O)c4cn(-c5ccccc5OC(F)(F)F)cn4)cc3F)ccnc2cc1OCCCN1CCC(C)CC1
- IC50 [1]: 690 nM
- IC50 [2]: 760 nM
- IC50 [3]: 150 nM

Structure (SMILES): COc1cc2c(Oc3ccc(NC(=O)/C=C/S(=O)(=O)c4ccccc4OC)cc3F)ccnc2cc1OCCCN1CCOCC1
- IC50 [1]: 1180 nM
- IC50 [2]: 770 nM
- IC50 [3]: 1470 nM

Structure (SMILES): COc1cc2c(Oc3ccc(NC(=O)c4cn(-c5ccccc5OC)cn4)cc3F)ccnc2cc1OCCCN1CCC(C)CC1
- IC50 [1]: 300 nM
- IC50 [2]: 400 nM
- IC50 [3]: 600 nM

Structure (SMILES): COc1cc2c(Oc3ccc(NC(=O)c4cn(-c5ccccc5OC(F)(F)F)cn4)cc3F)ccnc2cc1OCCCN1CCN(C)CC1
- IC50 [1]: 170 nM
- IC50 [2]: 130 nM
- IC50 [3]: 120 nM

Structure (SMILES): COc1cc2c(Oc3ccc(NC(=O)c4cn(-c5cc(C)ccc5C)cn4)cc3F)ccnc2cc1OCCCN1CCC(C)CC1
- IC50 [1]: 2220 nM
- IC50 [2]: 7420 nM
- IC50 [3]: 5650 nM

Structure (SMILES): COc1cc2c(Oc3ccc(NC(=O)c4cn(-c5cc(C)ccc5C)cn4)cc3F)ccnc2cc1OCCCN1CCOCC1
- IC50 [1]: 1960 nM
- IC50 [2]: 5480 nM
- IC50 [3]: 3200 nM
